Assay results reported in PubChem BioAssay AID1963973 (Molecular Pharmacology Branch, DTP, NCI, 2024).

Tested on: 883617-216-R-J1-PDC tumor spheroids, viability
Assay: Anticancer human tumor 883617-216-R-J1-PDC patient-derived bladder carcinoma cell line growth inhibition [PI3K]
Conditions: spheroids with HUVEC and MSC; for IC50: curve of first compound; for viability, T/C: stronger effect = lower value
Method in brief: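 Multi-cell spheroids combine tumor cells with HUVEC and human MSCs, treated with targeted agents alone or with inavolisib, alpelisib, duvelisib or copanlisib. Concentrations fall in half-log steps from at or near clinical Cmax, or from 10 microM where Cmax is unknown; viability read-out.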
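Further: spheroids exposed to agents for 7 days before the viability read.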

Which IC50 (second compound 0.0316 µM) does the source give for `CNC(=O)c1ccc(N2C(=S)N(c3ccc(C#N)c(C(F)(F)F)c3)C(=O)C2(C)C)cc1F` + Cc1nc(NC(=O)N2CCCC2C(N)=O)sc1-c1ccnc(C(C)(C)C(F)(F)F)c1 here?
Its IC50 is greater than 10000 nM.

What about the IC50 (second compound 0.1 µM) of the same compound?
The IC50 was greater than 10000 nM.

What about the IC50 (second compound 0.316 µM) of the same compound?
Its IC50 is less than 31.6 nM.

What about the IC50 (second compound 1 µM) of the same compound?
Its IC50 is less than 31.6 nM.

And the IC50 (second compound 3.16 µM)?
Its IC50 is less than 31.6 nM.

What about the IC50 (second compound 10 µM) of the same compound?
Its IC50 is less than 31.6 nM.

What about the viability, T/C (second compound 0.0316 µM, first compound 0.0316 µM) of the same compound?
The viability, T/C was 94.3%.

What about the viability, T/C (second compound 0.0316 µM, first compound 0.1 µM) of the same compound?
Its viability, T/C is 75.6%.

What about the viability, T/C (second compound 0.0316 µM, first compound 0.316 µM) of the same compound?
The viability, T/C was 86.2%.

What about the viability, T/C (second compound 0.0316 µM, first compound 1 µM) of the same compound?
Its viability, T/C is 82.5%.

What about the viability, T/C (second compound 0.0316 µM, first compound 3.16 µM) of the same compound?
The viability, T/C was 87.8%.

And the viability, T/C (second compound 0.0316 µM, first compound 10 µM)?
The viability, T/C was 63.4%.

What about the viability, T/C (second compound 0.1 µM, first compound 0.0316 µM) of the same compound?
Its viability, T/C is 74%.

What about the viability, T/C (second compound 0.1 µM, first compound 0.1 µM) of the same compound?
The viability, T/C was 67.2%.

And the viability, T/C (second compound 0.1 µM, first compound 0.316 µM)?
Its viability, T/C is 81.8%.

What about the viability, T/C (second compound 0.1 µM, first compound 1 µM) of the same compound?
Its viability, T/C is 74.7%.

What about the viability, T/C (second compound 0.1 µM, first compound 3.16 µM) of the same compound?
The viability, T/C was 63.6%.

And the viability, T/C (second compound 0.1 µM, first compound 10 µM)?
The viability, T/C was 73.7%.

What about the viability, T/C (second compound 0.316 µM, first compound 0.0316 µM) of the same compound?
The viability, T/C was 48.6%.

And the viability, T/C (second compound 0.316 µM, first compound 0.1 µM)?
The viability, T/C was 49.1%.

What about the viability, T/C (second compound 0.316 µM, first compound 0.316 µM) of the same compound?
The viability, T/C was 46.7%.

What about the viability, T/C (second compound 0.316 µM, first compound 1 µM) of the same compound?
Its viability, T/C is 45.7%.

And the viability, T/C (second compound 0.316 µM, first compound 3.16 µM)?
Its viability, T/C is 53.6%.

What about the viability, T/C (second compound 0.316 µM, first compound 10 µM) of the same compound?
Its viability, T/C is 45.6%.

What about the viability, T/C (second compound 1 µM, first compound 0.0316 µM) of the same compound?
Its viability, T/C is 31%.

What about the viability, T/C (second compound 1 µM, first compound 0.1 µM) of the same compound?
The viability, T/C was 27.3%.

And the viability, T/C (second compound 1 µM, first compound 0.316 µM)?
Its viability, T/C is 33.1%.

And the viability, T/C (second compound 1 µM, first compound 1 µM)?
Its viability, T/C is 32.4%.

What about the viability, T/C (second compound 1 µM, first compound 3.16 µM) of the same compound?
The viability, T/C was 25.9%.

What about the viability, T/C (second compound 1 µM, first compound 10 µM) of the same compound?
Its viability, T/C is 31.7%.

And the viability, T/C (second compound 3.16 µM, first compound 0.0316 µM)?
The viability, T/C was 15.9%.

What about the viability, T/C (second compound 3.16 µM, first compound 0.1 µM) of the same compound?
Its viability, T/C is 15.3%.

What about the viability, T/C (second compound 3.16 µM, first compound 0.316 µM) of the same compound?
The viability, T/C was 17.6%.

What about the viability, T/C (second compound 3.16 µM, first compound 1 µM) of the same compound?
The viability, T/C was 16.6%.

What about the viability, T/C (second compound 3.16 µM, first compound 3.16 µM) of the same compound?
The viability, T/C was 15.7%.

And the viability, T/C (second compound 3.16 µM, first compound 10 µM)?
Its viability, T/C is 14.3%.

What about the viability, T/C (second compound 10 µM, first compound 0.0316 µM) of the same compound?
The viability, T/C was 8.45%.

And the viability, T/C (second compound 10 µM, first compound 0.1 µM)?
The viability, T/C was 7.75%.

And the viability, T/C (second compound 10 µM, first compound 0.316 µM)?
Its viability, T/C is 8.14%.

And the viability, T/C (second compound 10 µM, first compound 1 µM)?
The viability, T/C was 7.47%.

What about the viability, T/C (second compound 10 µM, first compound 3.16 µM) of the same compound?
Its viability, T/C is 8.35%.

What about the viability, T/C (second compound 10 µM, first compound 10 µM) of the same compound?
Its viability, T/C is 6.73%.

Which results are given for `Cn1cnc2c(F)c(Nc3ccc(Br)cc3Cl)c(C(=O)NOCCO)cc21` + Cc1nc(NC(=O)N2CCCC2C(N)=O)sc1-c1ccnc(C(C)(C)C(F)(F)F)c1?
IC50 (second compound 0.0316 µM): 49.5 nM; IC50 (second compound 0.1 µM): 22.4 nM; IC50 (second compound 0.316 µM): < 9.49 nM; IC50 (second compound 1 µM): < 9.49 nM; IC50 (second compound 3.16 µM): < 9.49 nM; IC50 (second compound 10 µM): < 9.49 nM; viability, T/C (second compound 0.0316 µM, first compound 0.00949 µM): 64.4%; viability, T/C (second compound 0.0316 µM, first compound 0.03 µM): 48.8%; viability, T/C (second compound 0.0316 µM, first compound 0.0949 µM): 41.5%; viability, T/C (second compound 0.0316 µM, first compound 0.3 µM): 44.2%; viability, T/C (second compound 0.0316 µM, first compound 0.949 µM): 30.8%; viability, T/C (second compound 0.0316 µM, first compound 3 µM): 19.5%; viability, T/C (second compound 0.1 µM, first compound 0.00949 µM): 62.3%; viability, T/C (second compound 0.1 µM, first compound 0.03 µM): 45.1%; viability, T/C (second compound 0.1 µM, first compound 0.0949 µM): 33.5%; viability, T/C (second compound 0.1 µM, first compound 0.3 µM): 27.7%; viability, T/C (second compound 0.1 µM, first compound 0.949 µM): 23.2%; viability, T/C (second compound 0.1 µM, first compound 3 µM): 15.9%; viability, T/C (second compound 0.316 µM, first compound 0.00949 µM): 41.4%; viability, T/C (second compound 0.316 µM, first compound 0.03 µM): 27.9%; viability, T/C (second compound 0.316 µM, first compound 0.0949 µM): 25.8%; viability, T/C (second compound 0.316 µM, first compound 0.3 µM): 20.7%; viability, T/C (second compound 0.316 µM, first compound 0.949 µM): 16.8%; viability, T/C (second compound 0.316 µM, first compound 3 µM): 9.49%; viability, T/C (second compound 1 µM, first compound 0.00949 µM): 18.6%; viability, T/C (second compound 1 µM, first compound 0.03 µM): 19%; viability, T/C (second compound 1 µM, first compound 0.0949 µM): 15.9%; viability, T/C (second compound 1 µM, first compound 0.3 µM): 14%; viability, T/C (second compound 1 µM, first compound 0.949 µM): 11.9%; viability, T/C (second compound 1 µM, first compound 3 µM): 4.92%; viability, T/C (second compound 3.16 µM, first compound 0.00949 µM): 11.2%; viability, T/C (second compound 3.16 µM, first compound 0.03 µM): 8.7%; viability, T/C (second compound 3.16 µM, first compound 0.0949 µM): 10.1%; viability, T/C (second compound 3.16 µM, first compound 0.3 µM): 7.89%; viability, T/C (second compound 3.16 µM, first compound 0.949 µM): 4.92%; viability, T/C (second compound 3.16 µM, first compound 3 µM): 2.19%; viability, T/C (second compound 10 µM, first compound 0.00949 µM): 4.41%; viability, T/C (second compound 10 µM, first compound 0.03 µM): 3.98%; viability, T/C (second compound 10 µM, first compound 0.0949 µM): 3.69%; viability, T/C (second compound 10 µM, first compound 0.3 µM): 3.12%; viability, T/C (second compound 10 µM, first compound 0.949 µM): 2.43%; viability, T/C (second compound 10 µM, first compound 3 µM): 1.07%
